Data: publication PMC12679645, “Diversifying the triquinazine scaffold of a Janus kinase inhibitor” (RSC Medicinal Chemistry, 2025)
Read-outs that look alike come from different tables or passages of the source. One block for each molecule: values may come before it.

Key:
TYK2 [1] = biological target: T1, TYK2 (Homo sapiens, UniProt P29597); assay: biochemical; design: Eurofins Cerep biochemical enzymatic kinase assay, per cent inhibition at a single concentration, duplicate
Excerpt: (§1) Spiro diamines containing a deazapurine ring are known JAK inhibitors.[35]

JAK2 [2] = biological target: T2, JAK2 (Homo sapiens, UniProt O60674); assay: biochemical; design: Eurofins Cerep biochemical enzymatic kinase assay, per cent inhibition at a single concentration, duplicate
T2 sequence (O60674 whole entry): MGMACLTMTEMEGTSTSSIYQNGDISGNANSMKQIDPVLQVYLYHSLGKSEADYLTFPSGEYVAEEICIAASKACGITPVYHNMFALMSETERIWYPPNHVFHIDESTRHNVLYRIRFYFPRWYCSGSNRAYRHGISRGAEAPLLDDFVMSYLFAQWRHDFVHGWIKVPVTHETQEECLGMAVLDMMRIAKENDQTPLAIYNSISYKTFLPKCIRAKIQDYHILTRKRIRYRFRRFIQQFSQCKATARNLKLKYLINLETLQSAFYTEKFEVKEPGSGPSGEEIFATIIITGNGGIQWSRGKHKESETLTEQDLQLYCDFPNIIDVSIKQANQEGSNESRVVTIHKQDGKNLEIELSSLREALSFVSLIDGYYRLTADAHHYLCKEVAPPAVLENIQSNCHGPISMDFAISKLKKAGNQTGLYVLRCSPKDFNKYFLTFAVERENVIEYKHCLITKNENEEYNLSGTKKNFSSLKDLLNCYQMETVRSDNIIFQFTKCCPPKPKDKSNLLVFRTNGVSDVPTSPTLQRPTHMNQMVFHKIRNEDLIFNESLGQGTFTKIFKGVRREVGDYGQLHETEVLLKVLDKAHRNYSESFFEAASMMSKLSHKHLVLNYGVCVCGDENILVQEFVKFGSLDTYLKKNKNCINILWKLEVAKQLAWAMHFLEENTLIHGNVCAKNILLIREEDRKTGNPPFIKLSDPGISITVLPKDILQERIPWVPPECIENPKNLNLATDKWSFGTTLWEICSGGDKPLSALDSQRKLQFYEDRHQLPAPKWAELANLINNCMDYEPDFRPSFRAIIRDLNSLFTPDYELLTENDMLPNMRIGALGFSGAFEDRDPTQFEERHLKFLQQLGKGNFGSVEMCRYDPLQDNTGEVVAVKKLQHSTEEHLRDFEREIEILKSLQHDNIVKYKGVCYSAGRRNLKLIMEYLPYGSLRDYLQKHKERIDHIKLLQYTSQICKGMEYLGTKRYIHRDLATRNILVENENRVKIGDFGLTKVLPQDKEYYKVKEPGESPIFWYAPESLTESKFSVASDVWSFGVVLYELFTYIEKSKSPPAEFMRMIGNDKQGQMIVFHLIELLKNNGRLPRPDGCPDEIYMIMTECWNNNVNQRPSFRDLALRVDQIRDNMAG
Excerpt: as §1

JAK3 [3] = biological target: T3, JAK3 (Homo sapiens, UniProt P52333); assay: biochemical; design: Eurofins Cerep biochemical enzymatic kinase assay, per cent inhibition at a single concentration, duplicate; details: read-out: % of inhibition ^a / JAK3
T3 sequence (P52333 1-1124): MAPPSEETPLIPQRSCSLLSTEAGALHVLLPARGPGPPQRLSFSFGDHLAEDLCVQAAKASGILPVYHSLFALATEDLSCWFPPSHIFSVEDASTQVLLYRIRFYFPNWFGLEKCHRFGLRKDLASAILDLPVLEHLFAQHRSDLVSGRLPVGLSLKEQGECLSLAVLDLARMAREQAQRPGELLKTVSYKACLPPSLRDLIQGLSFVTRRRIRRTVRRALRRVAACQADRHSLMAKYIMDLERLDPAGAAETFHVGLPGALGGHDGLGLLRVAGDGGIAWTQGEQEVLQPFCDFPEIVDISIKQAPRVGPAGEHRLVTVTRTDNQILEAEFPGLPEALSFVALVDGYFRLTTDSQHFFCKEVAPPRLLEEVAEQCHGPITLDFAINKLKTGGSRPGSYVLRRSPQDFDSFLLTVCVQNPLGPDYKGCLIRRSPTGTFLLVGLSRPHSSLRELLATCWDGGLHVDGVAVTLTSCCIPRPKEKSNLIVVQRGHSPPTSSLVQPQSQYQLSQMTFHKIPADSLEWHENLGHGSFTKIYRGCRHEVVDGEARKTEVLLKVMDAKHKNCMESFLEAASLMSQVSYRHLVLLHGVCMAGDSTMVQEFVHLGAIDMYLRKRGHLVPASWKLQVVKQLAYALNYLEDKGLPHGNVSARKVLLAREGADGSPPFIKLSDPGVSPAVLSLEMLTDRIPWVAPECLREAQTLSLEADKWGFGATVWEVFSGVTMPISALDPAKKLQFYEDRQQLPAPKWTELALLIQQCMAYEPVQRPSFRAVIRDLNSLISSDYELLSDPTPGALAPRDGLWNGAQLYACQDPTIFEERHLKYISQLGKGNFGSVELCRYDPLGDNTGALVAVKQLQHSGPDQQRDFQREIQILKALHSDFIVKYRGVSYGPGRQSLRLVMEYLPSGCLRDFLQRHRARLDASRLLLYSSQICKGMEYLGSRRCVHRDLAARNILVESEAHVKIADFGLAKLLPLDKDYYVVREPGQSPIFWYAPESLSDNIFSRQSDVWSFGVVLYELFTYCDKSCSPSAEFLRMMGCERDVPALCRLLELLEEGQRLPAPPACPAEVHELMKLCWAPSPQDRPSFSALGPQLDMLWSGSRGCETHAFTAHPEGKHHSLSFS

JAK1 [4] = biological target: T4, JAK1 (Homo sapiens, UniProt P23458); assay: biochemical enzymatic kinase assay, % inhibition at […]
T4 sequence (P23458 whole entry): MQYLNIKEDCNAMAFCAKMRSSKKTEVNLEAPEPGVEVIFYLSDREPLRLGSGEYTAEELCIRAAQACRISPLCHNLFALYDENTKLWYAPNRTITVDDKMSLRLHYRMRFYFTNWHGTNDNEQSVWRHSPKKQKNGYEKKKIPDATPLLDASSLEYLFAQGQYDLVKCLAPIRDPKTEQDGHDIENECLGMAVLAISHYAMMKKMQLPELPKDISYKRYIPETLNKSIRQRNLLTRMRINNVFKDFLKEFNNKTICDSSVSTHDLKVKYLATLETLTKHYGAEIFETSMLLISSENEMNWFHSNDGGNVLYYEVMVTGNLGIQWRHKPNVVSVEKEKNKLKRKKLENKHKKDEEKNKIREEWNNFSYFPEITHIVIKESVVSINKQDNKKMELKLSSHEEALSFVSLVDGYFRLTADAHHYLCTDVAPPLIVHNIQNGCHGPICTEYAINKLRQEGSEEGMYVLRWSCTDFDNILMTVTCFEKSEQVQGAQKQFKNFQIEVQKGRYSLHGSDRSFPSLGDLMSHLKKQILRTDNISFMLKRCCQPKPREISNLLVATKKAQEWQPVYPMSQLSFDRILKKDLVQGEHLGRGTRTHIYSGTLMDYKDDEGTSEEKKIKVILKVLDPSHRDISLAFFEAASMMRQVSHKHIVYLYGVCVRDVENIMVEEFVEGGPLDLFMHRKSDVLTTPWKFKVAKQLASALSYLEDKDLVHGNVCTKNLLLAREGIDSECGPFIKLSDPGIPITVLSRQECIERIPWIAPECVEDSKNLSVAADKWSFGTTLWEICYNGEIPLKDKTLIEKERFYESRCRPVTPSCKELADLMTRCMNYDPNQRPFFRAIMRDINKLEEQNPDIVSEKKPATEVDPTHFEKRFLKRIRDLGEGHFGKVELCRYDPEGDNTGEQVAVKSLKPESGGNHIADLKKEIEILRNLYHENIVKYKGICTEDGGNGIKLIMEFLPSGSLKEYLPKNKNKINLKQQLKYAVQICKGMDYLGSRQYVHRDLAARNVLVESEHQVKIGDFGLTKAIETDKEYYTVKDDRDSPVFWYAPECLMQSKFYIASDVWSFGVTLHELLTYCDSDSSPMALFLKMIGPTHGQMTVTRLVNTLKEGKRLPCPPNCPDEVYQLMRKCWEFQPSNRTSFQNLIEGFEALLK

TYK2 [5] = biological target: T1, TYK2; assay: biochemical; design: radiometric filter-binding kinase inhibition assay (Eurofins Cerep), scintillation counting
Method: (§2) Given the structural similarities between the expanded ring analogues 16a and 16b and the previously described inhibitor KMC420, we initially evaluated their activity at 0.1 μM against JAK1, JAK2, JAK3, and TYK2, using biochemical enzymatic assays provided by Eurofins Cerep SA.

JAK3 [6] = biological target: T3, JAK3; assay: biochemical; design: radiometric filter-binding kinase inhibition assay (Eurofins Cerep), scintillation counting
Method: as §2

JAK1 [7] = biological target: T4, JAK1; assay: biochemical; design: radiometric filter-binding kinase inhibition assay (Eurofins Cerep), scintillation counting
Method: as §2

JAK2 [8] = biological target: T2, JAK2; assay: biochemical; design: radiometric filter-binding kinase inhibition assay (Eurofins Cerep), scintillation counting
Method: as §2

JAK1 [9] = biological target: T4, JAK1; assay: biochemical enzymatic kinase assay, % inhibition at […]; remark: listed apart in the source
JAK3 [10] = biological target: T3, JAK3; assay: as above
TYK2 [11] = biological target: T1, TYK2; assay: as above
JAK1 [12] = biological target: T4, JAK1; assay: biochemical; design: Eurofins Cerep biochemical enzymatic kinase assay, per cent inhibition at a single concentration, duplicate
Method: Given the structural similarities between the expanded ring analogues 16a and 16b and the previously described inhibitor KMC420, we initially evaluated their activity at 0.1 μM against JAK1, JAK2, JAK3, and TYK2, using biochemical enzymatic assays provided by Eurofins Cerep SA. […] Spiro diamines containing a deazapurine ring are known JAK inhibitors.[35] […] However, this compound was not tested against the other JAK enzymes. Due to its similarity to our potent compound 40a, we decided to investigate its inhibitory activity against the four enzymes at a concentration of 0.1 μM. […] To investigate the binding differences between 40a and (R)-KMC420, we performed docking studies with DOCK6 using the JAK1 co-crystal structure with tofacitinib (PDB 3EYG) as receptor.

JAK1 [13] = biological target: T4, JAK1; assay: biochemical enzymatic kinase assay (Eurofins Cerep), IC50 curve

T1 sequence (P29597 whole entry): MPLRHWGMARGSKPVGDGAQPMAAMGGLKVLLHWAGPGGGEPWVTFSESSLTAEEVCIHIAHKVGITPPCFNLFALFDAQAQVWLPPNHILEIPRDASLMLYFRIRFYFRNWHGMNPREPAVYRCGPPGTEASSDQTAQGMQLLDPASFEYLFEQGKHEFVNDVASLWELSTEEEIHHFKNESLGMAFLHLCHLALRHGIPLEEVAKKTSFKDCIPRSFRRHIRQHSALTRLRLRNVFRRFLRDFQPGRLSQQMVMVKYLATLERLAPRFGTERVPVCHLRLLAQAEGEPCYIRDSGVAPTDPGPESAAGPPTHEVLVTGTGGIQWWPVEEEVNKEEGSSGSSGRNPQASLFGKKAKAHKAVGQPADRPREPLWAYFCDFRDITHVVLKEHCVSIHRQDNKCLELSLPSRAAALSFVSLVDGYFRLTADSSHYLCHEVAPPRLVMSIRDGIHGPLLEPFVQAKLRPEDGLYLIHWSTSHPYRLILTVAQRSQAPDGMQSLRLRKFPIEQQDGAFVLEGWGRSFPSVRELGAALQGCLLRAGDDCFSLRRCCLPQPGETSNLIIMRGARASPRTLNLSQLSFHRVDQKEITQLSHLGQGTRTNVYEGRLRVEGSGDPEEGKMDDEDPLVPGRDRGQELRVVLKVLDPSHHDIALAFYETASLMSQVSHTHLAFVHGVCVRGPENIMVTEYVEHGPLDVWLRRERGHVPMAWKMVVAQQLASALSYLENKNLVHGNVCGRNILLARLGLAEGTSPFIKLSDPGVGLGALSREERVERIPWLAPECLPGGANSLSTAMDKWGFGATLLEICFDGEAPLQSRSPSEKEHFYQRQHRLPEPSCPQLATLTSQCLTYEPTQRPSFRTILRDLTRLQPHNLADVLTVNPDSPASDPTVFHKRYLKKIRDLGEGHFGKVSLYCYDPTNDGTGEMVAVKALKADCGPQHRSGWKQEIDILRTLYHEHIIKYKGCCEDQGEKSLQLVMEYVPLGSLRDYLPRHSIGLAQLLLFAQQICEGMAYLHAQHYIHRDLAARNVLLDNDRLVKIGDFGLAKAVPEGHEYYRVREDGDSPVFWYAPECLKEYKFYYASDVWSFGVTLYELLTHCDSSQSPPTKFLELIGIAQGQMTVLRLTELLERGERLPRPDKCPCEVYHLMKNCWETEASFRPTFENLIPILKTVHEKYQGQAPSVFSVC

SMILES: C[C@]12CCN(c3ncnc4[nH]ccc34)[C@H]1CC[C@H]2NC#N (racemic) [34c]
inhibition at 1 µM (TYK2 [1]): 53 ± 5% | inhibition at 1 µM (JAK2 [2]): 45 ± 8% | inhibition at 1 µM (JAK3 [3]): 43 ± 3% | inhibition at 1 µM (JAK1 [4]): 89 ± 2%

SMILES: CCS(=O)(=O)N[C@@H]1CC[C@@H]2N(c3ncnc4[nH]ccc34)CC[C@@]21C (racemic) [34d]
inhibition at 1 µM (TYK2 [1]): 56 ± 1% | inhibition at 1 µM (JAK2 [2]): 61 ± 1% | inhibition at 1 µM (JAK3 [3]): 45 ± 6% | inhibition at 1 µM (JAK1 [4]): 88 ± 1%

SMILES: CC12CCN(c3ncnc4[nH]ccc34)C1CCC2NC(=O)CC#N (stereo not shown) [34a]
inhibition at 1 µM (TYK2 [1]): 41 ± 6% | inhibition at 1 µM (JAK2 [2]): 41 ± 5% | inhibition at 1 µM (JAK3 [3]): 43 ± 5% | inhibition at 1 µM (JAK1 [12]): 85 ± 1%

SMILES: C=CC(=O)NC1CCC2N(c3ncnc4[nH]ccc34)CCC12C (stereo not shown) [34b]
inhibition at 1 µM (TYK2 [1]): 23 ± 5% | inhibition at 1 µM (JAK2 [2]): 27 ± 3% | inhibition at 1 µM (JAK3 [3]): 38 ± 1% | inhibition at 1 µM (JAK1 [12]): 73 ± 1%

SMILES: C[C@]12CCN(c3ncnc4[nH]ccc34)[C@H]1CC[C@@H]2NC(=O)CC#N [(R,S,S)-40a]
IC50 (JAK1 [13]): 69 nM

SMILES: C[C@@]12CCN(c3ncnc4[nH]ccc34)[C@@H]1CC[C@H]2NC(=O)CC#N [(S,R,R)-40a]
IC50 (JAK1 [13]): 18 nM

The next lines start with the values.

inhibition at 1 µM (TYK2 [5]): 70% | inhibition at 10 µM (TYK2 [5]): 100% | inhibition at 1 µM (JAK3 [6]): 55% | inhibition at 10 µM (JAK3 [6]): 99% | inhibition at 1 µM (JAK1 [7]): 93% | inhibition at 10 µM (JAK1 [7]): 100% | inhibition at 1 µM (JAK2 [8]): 52% | inhibition at 10 µM (JAK2 [8]): 96% | inhibition at 0.1 µM (TYK2 [1]): 16 ± 2% | inhibition at 0.1 µM (JAK2 [2]): 8 ± 1% | inhibition at 0.1 µM (JAK3 [3]): 4 ± 1% | inhibition at 0.1 µM (JAK1 [9]): 59 ± 2%
SMILES: C=CC(=O)N[C@H]1CC[C@@H]2N(c3ncnc4[nH]ccc34)CC[C@]12C (racemic) [40b]

inhibition at 0.1 µM (JAK3 [10]): 58 ± 1% | inhibition at 1 µM (TYK2 [5]): 92% | inhibition at 10 µM (TYK2 [5]): 91% | inhibition at 1 µM (JAK3 [6]): 96% | inhibition at 10 µM (JAK3 [6]): 79% | inhibition at 1 µM (JAK1 [7]): 95% | inhibition at 10 µM (JAK1 [7]): 100% | inhibition at 1 µM (JAK2 [8]): 58% | inhibition at 10 µM (JAK2 [8]): 85% | inhibition at 0.1 µM (JAK2 [2]): 18 ± 6% | inhibition at 0.1 µM (TYK2 [11]): 61% | inhibition at 0.1 µM (JAK1 [9]): 70 ± 2%
SMILES: C[C@]12CCN(c3ncnc4[nH]ccc34)[C@H]1CC[C@@H]2NC#N (racemic) [40c]

inhibition at 1 µM (TYK2 [1]): 63 ± 2% | inhibition at 1 µM (JAK2 [2]): 59 ± 4% | inhibition at 1 µM (JAK3 [3]): 26 ± 1% | inhibition at 1 µM (JAK1 [4]): 93 ± 1%
SMILES: N#CN1CCC2(CCN(c3ncnc4[nH]ccc34)C2)C1 (racemic) [43c]

inhibition at 10 µM (TYK2 [1]): 75 ± 2% | inhibition at 10 µM (JAK2 [2]): 60% | inhibition at 10 µM (JAK1 [12]): 94%
SMILES: CC12CCN(C(=O)CC#N)C1CCC2Nc1ncnc2[nH]ccc12 (stereo not shown) [36a]

inhibition at 10 µM (TYK2 [1]): 52% | inhibition at 10 µM (JAK2 [2]): 47 ± 2% | inhibition at 10 µM (JAK3 [3]): 63 ± 1% | inhibition at 10 µM (JAK1 [12]): 84 ± 2%
SMILES: C=CC(=O)N1CCC2(C)C(Nc3ncnc4[nH]ccc34)CCC12 (stereo not shown) [36b]

inhibition at 10 µM (TYK2 [1]): 74 ± 3% | inhibition at 10 µM (JAK2 [2]): 80 ± 3% | inhibition at 10 µM (JAK1 [12]): 92%
SMILES: CC12CCN(C#N)C1CCC2Nc1ncnc2[nH]ccc12 (stereo not shown) [36c]

inhibition at 1 µM (TYK2 [5]): 53% | inhibition at 10 µM (TYK2 [5]): 97% | inhibition at 1 µM (JAK3 [6]): 44% | inhibition at 10 µM (JAK3 [6]): 96% | inhibition at 1 µM (JAK1 [7]): 45% | inhibition at 10 µM (JAK1 [7]): 99% | inhibition at 1 µM (JAK2 [8]): 11% | inhibition at 10 µM (JAK2 [8]): 98% | inhibition at 10 µM (TYK2 [1]): 67 ± 1% | inhibition at 10 µM (JAK2 [2]): 51 ± 3% | inhibition at 10 µM (JAK3 [3]): 42 ± 3% | inhibition at 10 µM (JAK1 [12]): 86 ± 1%
SMILES: CCS(=O)(=O)N1CCC2(C)C(Nc3ncnc4[nH]ccc34)CCC12 (stereo not shown) [36d]

inhibition at 1 µM (TYK2 [5]): 82% | inhibition at 10 µM (TYK2 [5]): 95% | inhibition at 1 µM (JAK3 [6]): 79% | inhibition at 10 µM (JAK3 [6]): 89% | inhibition at 1 µM (JAK1 [7]): 99% | inhibition at 10 µM (JAK1 [7]): 99% | inhibition at 1 µM (JAK2 [8]): 72% | inhibition at 10 µM (JAK2 [8]): 91% | inhibition at 0.1 µM (TYK2 [1]): 29 ± 3% | inhibition at 0.1 µM (JAK2 [2]): 3 ± 1% | inhibition at 0.1 µM (JAK3 [3]): 27 ± 1% | inhibition at 0.1 µM (JAK1 [12]): 80 ± 3%
SMILES: CC12CCN(c3ncnc4[nH]ccc34)C1CCC2NC(=O)CC#N (stereo not shown) [40a]

inhibition at 1 µM (JAK3 [6]): 11% | inhibition at 1 µM (JAK1 [7]): 76% | inhibition at 1 µM (JAK2 [8]): 38% | inhibition at 0.1 µM (TYK2 [1]): 11 ± 12% | inhibition at 0.1 µM (JAK2 [2]): 1 ± 8% | inhibition at 0.1 µM (JAK3 [3]): -10 ± 11% | inhibition at 0.1 µM (JAK1 [12]): 28 ± 6%
SMILES: CCS(=O)(=O)NC1CCC2N(c3ncnc4[nH]ccc34)CCC12C (stereo not shown) [40d]

inhibition at 1 µM (TYK2 [1]): 34 ± 8% | inhibition at 1 µM (JAK2 [2]): 54 ± 6% | inhibition at 1 µM (JAK3 [3]): 22 ± 1% | inhibition at 1 µM (JAK1 [12]): 87 ± 1%
SMILES: CCS(=O)(=O)N1CCC2(CCN(c3ncnc4[nH]ccc34)C2)C1 (stereo not shown) [43d]
